{"source": "patent US20090062375A1", "about": "“METHODS AND COMPOSITIONS FOR THE TREATMENT OF VIRAL DISEASES” (priority 2005, published 2009)", "key": {"HUVEC monolayers": {"tested_on": "HUVEC monolayers", "assay": "HUVEC monolayer permeability assay (FITC-dextran, Transwell)", "assay_type": "cell-based, human", "conditions": "concentration not stated", "experimental": "FIG. 6. Supernatant of DEN-V2 infected-iDC increase endothelial cell permeability in a MMP dependent fashion. Eighty percent confluent HUVEC were prepared on 24-well transwell polyethylene. (A) Either cell culture supernatants of uninfected iDC, DV-infected iDC, or recombinant TNF-α (20 ng/ml) were pre-treated or not with 20 nM SB-3CT for 24 hours before HUVEC exposure for 12 hours, HUVEC monolayer permeability was measured by using the FITC-Dextran detected with spectrofluorometer at an excitation wavelength of 485 nm and emission at 530 nm. […] Data are representative of 3 or 4 independent experiments.\nFIG. 7. Supernatant of DEN-V2 infected-HUVEC increase endothelial cell permeability in a MMP-dependent fashion. IL-8 or TNF-α were used as controls. The induced permeability was inhibited as in experiment of FIG. 6 by SB-3CT.\nImmature dendritic cells were cultured for 24 hr in serum-free RPMI 1640 conditioned medium. And then infected with DV, cells and supernatant were collected at different periods. […]\nPermeability of HUVEC monolayers cultured on Transwell filters was assessed using FITC-labelled dextrans. […] The cells were removed and the absorbance of the FITC-dextran in the chamber was measured by spectrofluorometer (GENios-TECAN, Trappes, France) at an excitation wavelength of 485 nm and emission of 530 nm."}, "[1]": {"tested_on": "MMP-9 secretion by DV-infected iDC", "assay": "Gelatin zymography of gelatinase (MMP-9) secretion by DV-infected iDC", "assay_type": "cell-based, human", "conditions": "10 μM SB203580 pretreatment, DV exposure 16 hr, zymography (FIG. 5C)", "experimental": "FIG. 5. Immature DC (A-C) or HUVEC (D-F) were infected or not with DV and cells were collected 30 min post infection. Cells lysate were separated on 12.5% SDS-PAGE under reducing conditions. Proteins were electrophoretically transferred onto nitrocellulose membrane. The membrane was probed with (A and E) antibodies to total and to specific phosphorylated forms of ERK1/ERK2 antibodies to total and (B, D) to specific phosphorylated forms of p38 kinase. Horseradish peroxidase-conjugated goat anti-rabbit IgG was used as secondary antibody. Immature DC (C) or HUVEC (F) were pretreated or not with 10 μM SB 203580 prior to exposure with DV for 16 hr at 37° C. Supernatants were collected, lyophilized and assayed by zymography. Data are representative of 3 independent experiments.\nImmature dendritic cells 5×10^5 cells/well were exposed to DV2-16681 for 2 hr, at MOI of 1 pfu/cell, in serum free RPMI 1640. Five extensive washes were done to eliminate free virus. […] Supernatants of DV infected iDC were collected and assessed for their viral activity. […]\nDV infected iDC (5×10^5 cells) were cultured and collected in several time periods. Gelatinase secretion of cell supernatants was determined by sodium dodecyl sulfate-polyacrylamide gel electrophoresis (SDS-PAGE) zymography by using a gelatin substrate, as previously described (Missé´et al., 2001). […]"}}}
{"molecule": "C[S+]([O-])c1ccc(-c2nc(-c3ccc(F)cc3)c(-c3ccncc3)[nH]2)cc1", "note": "(centres unmarked) [SB203580, 4-(4-Fluorophenyl)-2-(4-methylsulfinylphenyl)-5-(4-pyridyl)1H-imidazole]", "values": [{"measurement": "permeability of HUVEC increased by dengue virus-infected iDC supernatants (summary statement)", "setting": "HUVEC monolayers", "result": "inhibited"}, {"measurement": "increase in MMP-9 secretion by DV-infected iDC", "setting": "[1]", "result": "totally abolished"}]}
